Broadly, the pIC50 is the IC50 on a negative log10 scale, so that one unit is a factor of ten. Lower therefore signals a large IC50.

pIC50: −log10 of the molar value.

The text below walks through data of US9670212B2, “Inhibitors of PI3K-delta and methods of their use and manufacture” (Exelixis, Inc., priority 2010, dated 2017).

The target in this experiment is PI3K delta (Homo sapiens (Human), UniProt O00329). As to the kind of experiment: Luciferase-coupled chemiluminescence kinase assay (KinaseGlo, ATP consumption). The format is biochemical. An outline of the steps: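 Kinase, compound and ATP (at or below KM) reacted 2 h at ambient temperature; remaining ATP detected by KinaseGlo luciferase chemiluminescence as percent ATP consumed. 10-point dose-response, curves fitted to give IC50.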
In general terms: Kinase-Glo measures the ATP left after a reaction by luminescence.

Sequence of PI3K delta (O00329 whole entry): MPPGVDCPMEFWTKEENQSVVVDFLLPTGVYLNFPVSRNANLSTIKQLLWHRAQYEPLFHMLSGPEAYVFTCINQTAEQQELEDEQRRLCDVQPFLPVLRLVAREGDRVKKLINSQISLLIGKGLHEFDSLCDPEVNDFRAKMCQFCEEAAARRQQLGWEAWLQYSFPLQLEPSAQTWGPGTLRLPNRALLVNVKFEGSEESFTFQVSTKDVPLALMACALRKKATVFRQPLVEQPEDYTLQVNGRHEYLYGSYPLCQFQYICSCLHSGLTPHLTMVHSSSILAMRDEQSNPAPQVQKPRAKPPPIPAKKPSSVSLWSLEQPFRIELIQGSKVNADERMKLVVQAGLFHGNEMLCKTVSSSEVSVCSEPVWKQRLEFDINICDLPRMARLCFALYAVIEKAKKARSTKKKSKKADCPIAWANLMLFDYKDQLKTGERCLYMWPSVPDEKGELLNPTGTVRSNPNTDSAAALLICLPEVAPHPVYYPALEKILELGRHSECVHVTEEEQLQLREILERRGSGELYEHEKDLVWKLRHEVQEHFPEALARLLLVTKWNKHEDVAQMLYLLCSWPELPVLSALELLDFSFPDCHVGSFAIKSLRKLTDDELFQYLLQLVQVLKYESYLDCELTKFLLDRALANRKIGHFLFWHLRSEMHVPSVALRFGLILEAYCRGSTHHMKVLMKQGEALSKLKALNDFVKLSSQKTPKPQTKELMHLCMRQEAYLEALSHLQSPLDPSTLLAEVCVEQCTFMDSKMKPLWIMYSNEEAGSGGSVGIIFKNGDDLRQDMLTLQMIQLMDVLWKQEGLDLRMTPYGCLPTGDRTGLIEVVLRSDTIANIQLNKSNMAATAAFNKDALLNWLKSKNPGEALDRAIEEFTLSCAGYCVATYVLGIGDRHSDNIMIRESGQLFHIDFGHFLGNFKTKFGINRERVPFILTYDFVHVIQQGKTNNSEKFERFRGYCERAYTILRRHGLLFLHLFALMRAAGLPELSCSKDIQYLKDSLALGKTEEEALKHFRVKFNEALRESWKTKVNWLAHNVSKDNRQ
Sequence of PI3K delta (P27986 whole entry partner): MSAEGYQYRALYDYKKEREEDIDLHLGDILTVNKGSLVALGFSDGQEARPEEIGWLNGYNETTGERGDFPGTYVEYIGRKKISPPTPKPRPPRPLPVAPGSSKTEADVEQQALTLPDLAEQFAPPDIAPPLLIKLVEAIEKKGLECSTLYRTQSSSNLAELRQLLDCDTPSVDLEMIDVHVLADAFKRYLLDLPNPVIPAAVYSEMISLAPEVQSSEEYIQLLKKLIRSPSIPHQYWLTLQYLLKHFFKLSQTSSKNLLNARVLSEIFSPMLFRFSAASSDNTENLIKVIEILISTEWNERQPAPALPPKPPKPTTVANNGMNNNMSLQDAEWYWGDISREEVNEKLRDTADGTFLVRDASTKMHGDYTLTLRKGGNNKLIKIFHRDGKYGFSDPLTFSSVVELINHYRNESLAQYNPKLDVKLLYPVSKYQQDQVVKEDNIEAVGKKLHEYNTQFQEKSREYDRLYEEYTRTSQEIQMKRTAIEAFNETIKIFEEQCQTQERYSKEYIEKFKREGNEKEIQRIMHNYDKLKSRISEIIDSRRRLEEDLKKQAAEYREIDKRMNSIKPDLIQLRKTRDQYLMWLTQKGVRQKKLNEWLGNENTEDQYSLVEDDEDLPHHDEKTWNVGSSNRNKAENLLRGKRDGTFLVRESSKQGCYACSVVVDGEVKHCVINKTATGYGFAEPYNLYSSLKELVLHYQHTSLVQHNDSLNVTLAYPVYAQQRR

In turn, `Cc1cccc2cc(CNC(=O)c3nccnc3N)c(N3CCCN(C(=O)Cn4ccnn4)CC3)nc12` [Compound 60, 3-amino-N-({8-methyl-2-[4-(1H-1,2,3-triazol-1-ylacetyl)-1,4-diazepan-1-yl]quinolin-3-yl}methyl)pyrazine-2-carboxamide] showed a pIC50 of 6.30 to 6.60. Next, `Cc1cccc2cc(CNC(=O)c3nccnc3N)c(N3CC(C)NC[C@H]3C)nc12` (stereo in doubt) [Compound 123, 3-amino-N-({2-[(2R,5S)-2,5-dimethylpiperazin-1-yl]-8-methylquinolin-3-yl}methyl)pyrazine-2-carboxamide]: 6.30 to 6.60; `Cc1cccc2cc(CNc3ncnc4[nH]cnc34)c(N(C)CC3CCCCN3C)nc12` (stereo not shown) [Compound 38, N,8-dimethyl-N-[(1-methylpiperidin-2-yl)methyl]-3-[(9H-purin-6-ylamino)methyl]quinolin-2-amine]: more than 7.30.

Molecule `Cc1ccccc1-c1cc2ccccc2cc1Cn1cnc2c(N)ncnc21` [Compound 120, 9-{[3-(2-methylphenyl)naphthalen-2-yl]methyl}-9H-purin-6-amine] gave a pIC50 of 5.82 to 6.30. The figure for `Cc1cccc2cc(CNC(=O)c3nccnc3N)c(N3CCCN(Cc4cccnc4)CC3)nc12` [Compound 64, 3-amino-N-({8-methyl-2-[4-(pyridin-3-ylmethyl)-1,4-diazepan-1-yl]quinolin-3-yl}methyl)pyrazine-2-carboxamide] is 6.30 to 6.60.

`CNCCN(C)c1nc2c(C)cccc2cc1CNc1ccc(OC)cc1` [Compound 20, N,N′-dimethyl-N-[8-methyl-3-({[4-(methyloxy)phenyl]amino}methyl)quinolin-2-yl]ethane-1,2-diamine] showed a pIC50 of 5.82 to 6.30. Next, `Cc1ccccc1-c1cc2c(C)cccc2nc1Cn1nc(I)c2c(N)ncnc21` [Compound 119, 3-iodo-1-{[5-methyl-3-(2-methylphenyl)quinolin-2-yl]methyl}-1H-pyrazolo[3,4-d]pyrimidin-4-amine]: more than 7.30.
